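Briefly, cells in 96-well plates were exposed to five compound concentrations for 48 h, and endpoints were estimated by linear interpolation. GI50 = concentration required for 50% inhibition of growth.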 The source made the active and inactive calls. Cut-off read from the data, not from the text of the source: active = GI50 up to about 1.1 µM and inactive = higher.
Key:
Test in all cases: NCI anticancer screen, dose series, 48 h
SW-620 = system: SW-620
UACC-257 = system: UACC-257
BT-549 = system: BT-549
MDA-N = system: MDA-N
SN12C = system: SN12C
UO-31 = system: UO-31
OVCAR-8 = system: OVCAR-8
HOP-62 = system: HOP-62
NCI/ADR-RES = system: NCI/ADR-RES
M14 = system: M14
KM12 = system: KM12
HT-29 = system: HT-29
EKVX = system: EKVX
MDA-MB-435 = system: MDA-MB-435
Malme-3M = system: Malme-3M
A549 = system: A549
HCC 2998 = system: HCC 2998
NCI-H522 = system: NCI-H522
OVCAR-4 = system: OVCAR-4

Measured: GI50

O=[N+]([O-])c1cccc([N+](=O)[O-])c1S(=O)(=O)c1ccccc1
inactive: SW-620 2.55 µM | UACC-257 13.2 µM | BT-549 3.08 µM | MDA-N 5.51 µM | SN12C 3.83 µM | UO-31 1.86 µM | OVCAR-8 2.48 µM | HOP-62 19.9 µM | NCI/ADR-RES 6.24 µM | M14 2.27 µM | KM12 16.1 µM | HT-29 7.67 µM | EKVX 21.2 µM | MDA-MB-435 3.61 µM | Malme-3M 2.28 µM | A549 19.8 µM

O=S(=O)(O)c1ccc(/N=N/c2ccc(/N=N/c3c(O)ccc4cc(S(=O)(=O)O)ccc34)cc2)cc1
inactive: SW-620 > 100 µM | UACC-257 > 100 µM | BT-549 > 100 µM | UO-31 53.3 µM | OVCAR-8 > 100 µM | HOP-62 > 100 µM | NCI/ADR-RES > 100 µM | HCC 2998 > 100 µM | M14 > 100 µM | KM12 > 100 µM | HT-29 > 100 µM | EKVX > 100 µM | MDA-MB-435 > 100 µM | Malme-3M > 100 µM | A549 > 100 µM | NCI-H522 > 100 µM

COC(=O)C12OC3CO[Si](C(C)C)(C(C)C)O[Si](C(C)C)(C(C)C)OC3C1Oc1nc(=O)ccn12 (centres undefined)
inactive: SW-620 16 µM | UACC-257 15.6 µM | BT-549 18.2 µM | MDA-N 18 µM | SN12C 17.9 µM | UO-31 16.3 µM | OVCAR-4 17.1 µM | OVCAR-8 15.5 µM | HOP-62 18.1 µM | NCI/ADR-RES 15.6 µM | M14 17.8 µM | KM12 15.7 µM | HT-29 15.4 µM | EKVX 16.7 µM | MDA-MB-435 17.1 µM | Malme-3M 14.8 µM | A549 15.2 µM

Cc1cc(=O)[nH]c(-n2[nH]c3c(c2=O)CCCC3)n1
inactive: SW-620 56 µM | UACC-257 66.5 µM | BT-549 > 100 µM | MDA-N > 100 µM | SN12C 77.8 µM | UO-31 59.6 µM | OVCAR-4 > 100 µM | M14 73.1 µM | KM12 > 100 µM | HT-29 44.5 µM | EKVX 58.2 µM | MDA-MB-435 > 100 µM | Malme-3M > 100 µM | A549 72.1 µM | NCI-H522 > 100 µM

CSC1=C(C#N)C(=O)N(c2ccc(C)cc2)C(=O)C1C#N (centres undefined)
inactive: SW-620 > 100 µM | UACC-257 > 100 µM | BT-549 > 100 µM | MDA-N > 100 µM | SN12C > 100 µM | UO-31 > 100 µM | OVCAR-4 > 100 µM | HOP-62 > 100 µM | HCC 2998 > 100 µM | M14 > 100 µM | KM12 > 100 µM | HT-29 > 100 µM | EKVX > 100 µM | MDA-MB-435 > 100 µM | Malme-3M > 100 µM | A549 > 100 µM | NCI-H522 29.7 µM

CC(C)c1ccc(/C=C2/C=C(c3ccc4ccccc4c3)OC2=O)cc1
inactive: SW-620 > 86.5 µM | UACC-257 21 µM | BT-549 33.3 µM | SN12C 57.1 µM | UO-31 > 76.2 µM | OVCAR-4 > 100 µM | OVCAR-8 45.2 µM | HOP-62 > 100 µM | NCI/ADR-RES 39.5 µM | HCC 2998 > 100 µM | M14 41 µM | KM12 62.1 µM | HT-29 > 95.3 µM | EKVX 40 µM | MDA-MB-435 41.3 µM | Malme-3M 15.8 µM | A549 > 89.7 µM | NCI-H522 10.5 µM

Reference: ChEMBL document CHEMBL1201862, “PubChem BioAssay data set” (2004)
